Assay results taken from patent US8318730B2, “Fused hetrocyclic compounds” (Synta Pharmaceuticals Corporation, priority 2003, dated 2012).
One block for each compound: values may come before it.

Assays:
[1] = system: IL-12 production; assay: In vitro assay of Example 12: inhibition of IL-12 production in IFNγ/LPS- or IFNγ/SAC-stimulated cells, ELISA; assay type: cell-based, human
Source text: The biological activities of a compound can be evaluated by a number of cell-based assays. One of such assays can be conducted using cells from human peripheral blood mononuclear cells (PBMC) or human monocytic cell line (THP-1). The cells are stimulated with a combination of human interferon-γ (IFNγ) and lipopolysaccharide or a combination of IFNγ and Staphylococcus aureus Cowan I in the presence of a test compound. The level of inhibition of IL-12 production can be measured by determining the amount of p70 by using a sandwich ELISA assay with anti-human IL-12 antibodies. IC50 of the test compound can then be determined. Specifically, PBMC or THP-1 cells are incubated with the test compound. Cell viability was assessed using the bioreduction of MTS [3-(4,5-dimethylthiazol-2-yl)-5-(3-carboxymethoxyphenyl)-2-(4-sulfophenyl)-2H-tetrazolium] (Promega, Madison, Wis.).
Staphylococcus aureus Cowan I (SAC) is obtained from Calbiochem (La Jolla, Calif.), and lipopolysaccharide (LPS, Serratia marscencens) is obtained from Sigma (St. Louis, Mo.). Human and mouse recombinant IFNγ are purchased from Boehringer Mannheim (Mannheim, Germany) and Pharmingen (San Diego, Calif.), respectively.
Human PBMC are isolated by centrifugation using Ficoll-Paque (Pharmacia Biotech, Uppsala, Sweden) and prepared in RPMI medium supplemented with 10% fetal calf serum (FCS), 100 U/mL penicillin, and 100 μg/mL streptomycin. PBMC are plated in wells of a 96-well plate at a concentration of 5×10^5 cells/well, and primed by adding IFNγ (30 U/mL) for 22 h and stimulated by adding LPS (1 μg/mL), or by adding IFNγ (100 U/mL) and then stimulated by adding SAC (0.01%). A test quinazoline compound is dissolved in DMSO, and added to wells of the 96-well plate. The final DMSO concentration is adjusted to 0.25% in all cultures, including the compound-free control. Human THP-1 cells are plated in wells, primed by adding IFNγ (100 U/mL) for 22 h and stimulated by adding SAC (0.025%) in the presence of different concentrations of the quinazoline compound. Cell-free supernatants are taken 18 h later for measurement of cytokines. Cell viability is assessed using the bioreduction of MTS. Cell survival is estimated by determining the ratio of the absorbance in compound-treated groups versus compound-free control.
The supernatant is assayed for the amount of IL-12p40, IL-12p70, or IL-10 by using a sandwich ELISA with anti-human antibodies, i.e., a Human IL-12 p40 ELISA kit from R&D Systems (Berkeley, Calif.), and a Human IL-12 p70 or IL-10 ELISA kit from Endogen (Cambridge, Mass.). Assays are based on the manufacturer's instructions.
The biological activities of quinazoline compounds are tested on human PBMC or THP-1 cells.

[2] = system: adjuvant arthritis (AA) in female Lewis rats; assay: Treatment of adjuvant arthritis in rats; assay type: in vivo, rat; conditions: oral administration once a day for 12 days; dose-dependent
Protocol: Adjuvant arthritis (AA) is induced in female Lewis rats by the intracutaneous injection (base of the tail) of 0.1 mL of a 10 mg/mL bacterial suspension made from ground, heat-killed Mycobacterium tuberculosis H37Ra suspended in incomplete Freund's adjuvant. Rats are given a test compound orally once a day for 12 days, starting the day following the induction. The development of polyarthritis is monitored daily by macroscopic inspection and assignment of an arthritis index to each animal, during the critical period (days 10 to 25 post-immunization).
The intensity of polyarthritis scored according to the following scheme: (a) Grade each paw from 0 to 3 based on erythema, swelling, and deformity of the joints: 0 for no erythema or swelling; 0.5 if swelling is detectable in at least one joint; 1 for mild swelling and erythema; 2 for swelling and erythema of both tarsus and carpus; and 3 for ankylosis and bony deformity. Maximum score for all 4 paws is thus 12. (b) Grade for other parts of the body: for each ear, 0.5 for redness and another 0.5 if knots are present; 1 for connective tissue swelling (saddle nose); and 1 for the presence of knots or kinks in the tail. The highest possible arthritic index is […].

[3] = system: DNBS-induced distal colitis in Wistar derived rats; assay: Dinitrobenzene sulfonic acid-induced inflammatory bowel syndrome model rats; assay type: in vivo, rat; conditions: oral, 24 and 2 hours before DNBS instillation and then daily for 5 days
Protocol: Wistar derived male or female rats weighing 200±20 g and fasted for 24 hours are used. Distal colitis was induced by intra-colonic instillation of 2,4-dinitrobenzene sulfonic acid (DNBS, 25 mg in 0.5 mL ethanol 30%) after which air (2 mL) is gently injected through the cannula to ensure that the solution remained in the colon. A test compound and/or vehicle is administered orally 24 and 2 hours before DNBS instillation and then daily for 5 days. One control group is similarly treated with vehicle alone while the other is treated with vehicle plus DNBS. The animals are sacrificed 24 hours after the final dose of test compound administration and each colon is removed and weighed. Colon-to-body weight ratio is then calculated for each animal according to the formula: Colon (g)/BW×100. The “Net” increase in ratio of Vehicle-control+DNBS group relative to Vehicle-control group is used as a base for comparison with test substance treated groups and expressed as “% Deduction.” Fused heterocyclic compounds of this invention (e.g., Compound 12) reproducibly have about 30% deduction. A 30% or more reduction in colon-to-body weight ratio, relative to the vehicle treated control group, is considered significant.

[4] = system: colitis in C.B-17 SCID mice; assay: CD4+ CD45Rb high T cell-reconstituted SCID colitis model mice; assay type: in vivo, mouse
Protocol: Spleen cells are prepared from normal female BALB/c mice. For cell purification, the following anti-mouse antibodies are used to label non-CD4^+ T cells: B220 (RA3-6B2), CD11b (Ml/70), and CD8a (53-6.72). All antibodies are obtained from BioSource (Camarillo, Calif.). M450 anti-rat IgG-coated magnetic beads (Dynal, Oslo, Norway) are used to bind the antibodies and negative selection is accomplished using an MPC-1 magnetic concentrator. The enriched CD4^+ cells are then labeled for cell sorting with FITC-conjugated CD45RB (16A, Pharmingen, San Diego, Calif.) and PE-conjugated CD4 (CT-CD4, Caltag, Burlingame, Calif.). CD4^+ CD45RB^high cells are operationally defined as the upper 40% of CD45Rb-staining CD4^+ cells and sorted under sterile conditions by flow cytometry. Harvested cells are resuspended at 4×10^6/mL in PBS and injected 100 μL intraperitoneally into female C.B-17 SCID mice. Fused heterocyclic compounds of this invention and/or vehicle is orally administered once a day, 5 days per week, starting the day following the transfer. The transplanted SCID mice are weighed weekly and their clinical condition is monitored.
Colon tissue samples are fixed in 10% buffered formalin and embedded in paraffin. Sections (4 μm) collected from ascending, transverse, and descending colon are cut and stained with hematoxylin and eosin. The severity of colitis is determined based on histological examination of the distal colon sections, whereby the extent of colonic inflammation is graded on a scale of 0-3 in each of four criteria: crypt elongation, cell infiltration, depletion of goblet cells, and the number of crypt abscesses.
LP lymphocytes are isolated from freshly obtained colonic specimens. After removal of payer's patches, the colon is washed in Ca/Mg-free HBSS, cut into 0.5 cm pieces and incubated twice in HBSS containing EDTA (0.75 mM), DTT (1 mM), and antibiotics (amphotericin 2.5 μg/mL, gentamicin 50 μg/mL from Sigma) at 37° C. for 15 min. Next, the tissue is digested further in RPMI containing 0.5 mg/mL collagenase D, 0.01 mg/mL DNase I (Boehringer Manheim), and antibiotics at 37° C. LP cells are then layered on a 40-100% Percoll gradient (Pharmacia, Uppsala, Sweden), and lymphocyte-enriched populations are isolated from the cells at the 40-100% interface.
To measure cytokine production, 48-well plates are coated with 10 μg/mL murine anti-CD3ε antibody (145-2C11) in carbonate buffer (PH 9.6) overnight at 4° C. 5×10^5 LP cells are then cultured in 0.5 ml of complete medium in precoated wells in the presence of 1 μg/mL soluble anti-CD28 antibody (37.51). Purified antibodies are obtained from Pharmingen. […] Murine IFNγ is measured using an ELISA kit from Endogen (Cambridge, Mass.), according to the manufacturer's instructions.

[5] = Homo sapiens, assay of Example 12, if more than one assay was performed, only the most active IC50 result is reported
[6] = measured in an assay according to Example 12, human PBMC or THP-1 cells

Compound: Cc1cccc(-c2ccc3nc(OCCN4CCOCC4)nc(N4CCOCC4)c3c2)c1 [Compound 12, 4-Morpholin-4-yl-2-(2-morpholin-4-yl-ethoxy)-6-m-tolyl-quinazoline]
IC50 [1, 5]: 189 nM
arthritic score [2]: reproducibly reduces the arthritic score
development of polyarthritis [2]: delayes the development of polyarthritis
% Deduction (colon-to-body weight ratio) [3]: about 30%
IFNγ production by LP cells in response to anti-CD3 and anti-CD28 antibody ([4]; ex vivo LP cells from treated mice): greatly diminishes the production
colon-to-body weight ratio ([4]; oral administration): attenuation
colonic inflammation (histological analysis) ([4]; oral administration, compared to vehicle control): reduce colonic inflammation
colonic inflammation, suppressive effect ([4]; oral, dose of 10 mg/kg): substantial reduction

Compound: COc1ccc(CCOc2nc(N3CCOCC3)c3cc(-c4cc5ccccc5o4)ccc3n2)cc1OC [Compound 28, 6-Benzofuran-2-yl-2-[2-(3,4-dimethoxy-phenyl)-ethoxy]-4-morpholin-4-yl-quinazoline]
IC50 [1, 5]: 64 nM

Compound: COc1ccc(CCOc2nc(N3CCOCC3)c3cc(-c4ccc(Cl)cc4)ccc3n2)cc1OC [Compound 30, 6-(4-Chloro-phenyl)-2-[2-(3,4-dimethoxy-phenyl)-ethoxy]-4-morpholin-4-yl-quinazoline]
IC50 [1, 5]: > 1000 nM

Compound: 2-Methyl-1-(4-morpholin-4-yl-6-m-tolyl-quinazolin-2-yloxy)-propan-2-ol [Compound 17]
IC50 ([1]; assay of Example 12, if more than one assay was performed, only the most active IC50 result is reported): 370 nM

Compound: c1ccc(Nc2ccc3nc(OCCN4CCOCC4)nc(N4CCOCC4)c3c2)cc1 [Compound 14, [4-Morpholin-4-yl-2-(2-morpholin-4-yl-ethoxy)-quinazolin-6-yl]-phenyl-amine]
IC50 [1, 5]: 3000 nM

Compound: COc1ccc(CCOc2nc(N3CCOCC3)c3cc(-c4cccc(C)c4)ccc3n2)cc1OC [Compound 15, 2-[2-(3,4-Dimethoxy-phenyl)-ethoxy]-4-morpholin-4-yl-6-m-tolyl-quinazoline]
IC50 [1, 5]: 189 nM

Compound: Cc1cccc(/C=N/Nc2nc(N3CCOCC3)nc3cc(Cl)ccc23)c1 [Compound 8, N-(7-Chloro-2-morpholin-4-yl-quinazolin-4-yl)-N′-(3-methyl-benzylidene)-hydrazine]
IC50 [1, 6]: 298 nM

Compound: COc1cc2nc(N3CCOCC3)nc(Nc3cccc(C)c3)c2cc1OC [Compound 11, (6,7-Dimethoxy-2-morpholin-4-yl-quinazolin-4-yl)-m-tolyl-amine]
IC50 [1, 6]: 10000 nM

Now from value to compound:

IC50 [1, 5]: > 10000 nM
Compound: Cc1ccc(-c2cnc3nc(OCCN4CCOCC4)nc(N4CCOCC4)c3c2)cc1C [Compound 44, 6-(3,4-Dimethyl-phenyl)-4-morpholin-4-yl-2-(2-morpholin-4-yl-ethoxy)-pyrido[2,3-d]pyrimidine]

IC50 [1, 5]: > 10000 nM
Compound: COc1ccc(CCOc2nc(N3CCOCC3)c3cc(Nc4cccc(C)c4)ccc3n2)cc1OC [Compound 39, {2-[2-(3,4-Dimethoxy-phenyl)-ethoxy]-4-morpholin-4-yl-quinazolin-6-yl}-m-tolyl-amine]

IC50 [1, 5]: 1400 nM
Compound: FC(F)(F)c1cccc(-c2cnc3nc(OCCN4CCOCC4)nc(N4CCOCC4)c3c2)c1 [Compound 43, 4-Morpholin-4-yl-2-(2-morpholin-4-yl-ethoxy)-6-(3-trifluoromethyl-phenyl)-pyrido[2,3-d]pyrimidine]
